Laboratory results as given in patent US7867731B2, “HX2004-6 polypeptide expressed in cancerous cells” (Novartis Vaccines and Diagnostics, Inc., priority 1998, dated 2011).

Tests used:
Assay type in all cases: cell-based, human
SW620 cells [1] = assay: Soft agar colony formation assay; settings: 2000 cells per well, oligo added without delivery vehicle
Experimental: The effect of TTK expression upon colony formation was tested in a soft agar assay. Soft agar assays were conducted by first establishing a bottom layer of 2 ml of 0.6% agar in media plated fresh within a few hours of layering on the cells. The cell layer was formed on the bottom layer by removing cells transfected as described above from plates using 0.05% trypsin and washing twice in media. The cells were counted in a Coulter counter, and resuspended to 10^6 per ml in media. 10 μl aliquots are placed with media in 96-well plates (to check counting with WST1), or diluted further for soft agar assay. 2000 cells are plated in 800 μl 0.4% agar in duplicate wells above 0.6% agar bottom layer. After the cell layer agar solidifies, 2 ml of media is dribbled on top and antisense or reverse control oligo is added without delivery vehicles. Fresh media and oligos are added every 3-4 days. Colonies are formed in 10 days to 3 weeks. Fields of colonies were counted by eye. Wst-1 metabolism values can be used to compensate for small differences in starting cell number. Larger fields can be scanned for visual record of differences.

TTK mRNA = assay: Antisense depletion of TTK mRNA after transfection, quantitated by real-time PCR; settings: SW620 cells, oligonucleotide final concentration 30 nM, normalized to beta-actin
Experimental: A number of different oligonucleotides complementary to TTK mRNA were designed as potential antisense oligonucleotides, and tested for their ability to suppress expression of TTK. The ability of each designed antisense oligonucleotide to inhibit gene expression was tested through transfection into SW620 colon colorectal carcinoma cells. For each transfection mixture, a carrier molecule, preferably a lipitoid or cholesteroid, was prepared to a working concentration of 0.5 mM in water, sonicated to yield a uniform solution, and filtered through a 0.45 μm PVDF membrane. The antisense or control oligonucleotide was then prepared to a working concentration of 100 μM in sterile Millipore water. The oligonucleotide was further diluted in OptiME™ (Gibco/BRL), in a microfuge tube, to 2 μM, or approximately 20 μg oligo/ml of OptiMEM™. […]
The level of target mRNA (TTK) in the transfected cells was quantitated in the cancer cell lines using the Roche LightCycler™ real-time PCR machine. […]
An amplification mixture was prepared by mixing in the following order: 1×PCR buffer II, 3 mM MgCl2, 140 μM each dNTP, 0.175 pmol each oligo, 1:50,000 dil of SYBR® Green, 0.25 mg/ml BSA, 1 unit Taq polymerase, and H2O to 20 μl. […] As double stranded PCR product is produced during amplification, the fluorescence from SYBR®) Green increases. […]

SW620 cells [2] = assay: Cell death by LDH release (Cytotoxicity Detection Kit)
Experimental: SW620 cells were transfected as described for proliferation assays. For cytotoxic effect in the presence of cisplatin (cis), the same protocol was followed but cells were left in the presence of 2 μM drug. Each day, cytotoxicity was monitored by measuring the amount of LDH enzyme released in the medium due to membrane damage. The activity of LDH was measured using the Cytotoxicity Detection Kit from Roche Molecular Biochemicals. The data is provided as a ratio of LDH released in the medium vs. the total LDH present in the well at the same time point and treatment (rLDH/tLDH).

Substance | colony size and number compared to reverse control (79-9RC) or control oligonucleotides (52-3AS, 52-3RC) (SW620 cells [1]) | depletion of TTK RNA in the transfection assays (TTK mRNA) | sensitization of the cells to treatment by cisplatin (SW620 cells [2]; 2 μM cisplatin, rLDH/tLDH) | cell death compared to control oligo (rLDH/tLDH) (SW620 cells [2]; day 3)
79-9AS (antisense TCCAGTAACTCTTGCGTTCCCATGG; chemistry not given here) [Oligo 79-9AS] | decreased colony size and number | effectively deplete TTK RNA | – | –
79-5AS (antisense GGGACTCTTCCAAATGGGCATGACT; chemistry not given here) [Oligo 79-5AS] | – | effectively deplete TTK RNA | – | –
Oligo 79-9AS: TTK antisense oligonucleotide TCCAGTAACTCTTGCGTTCCCATGG (SEQ ID NO:6) (chemistry not given here) | – | – | does not sensitize the cells to treatment by cisplatin at a detectable level | increased death
